Data from patent publication US20210403415A1, “COMPOUNDS AND METHODS TO ATTENUATE TUMOR PROGRESSION AND METASTASIS” (THE TRUSTEES OF INDIANA UNIVERSITY, priority 2018, published 2021).
Where two headings read alike, the source gives them in different places.

Experiments:
Assay type in all cases: binding
TEAD4 = TEAD4 (Homo sapiens, UniProt Q15561); assay: Whole protein ESI mass spectrometry, adduct formation; design: TEAD4 (217-434), TEAD4 (217-434) Cys367Ser mutant and Yap1 (Full-length) were expressed as GST-fusion proteins; GST (N, cleaved yes); made in house; host or cells: E. coli BL-21 (DE3), pGEX-6P-1; details: for covalent adduct formation with TEAD4: 10 μM TEAD4, 200 μM compound, 24 h at 4° C.
Sequence of TEAD4 (Q15561 217-434): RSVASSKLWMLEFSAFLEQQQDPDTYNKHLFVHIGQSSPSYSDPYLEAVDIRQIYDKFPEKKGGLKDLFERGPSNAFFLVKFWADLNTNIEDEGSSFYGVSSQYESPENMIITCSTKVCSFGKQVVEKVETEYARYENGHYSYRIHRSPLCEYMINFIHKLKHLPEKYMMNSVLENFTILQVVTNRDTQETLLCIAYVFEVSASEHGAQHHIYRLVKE
Experimental: (§1) The samples were centrifuged at 20,000×g for […] to remove precipitants before being injected into an empty column on an Agilent 1200 liquid chromatography system (Agilent, Santa Clara, Calif.), using 80% Buffer A (H2O, 5 mM NH4OAc) and 20% Buffer B (ACN, 5 mM NH4OAc), and the masses were detected on an Agilent 6520 Accurate Mass Q-TOF.
It was determined whether a covalent bond formed between inventive compounds and TEAD4. […] The covalent adduct formation by compound 2 was relatively fast (FIG. 3G), reaching nearly 100% adduct formation after 30 min incubation with TEAD4. Because the rate of inhibition developed over a longer timescale (FIG. 3C), compound 2 is proposed to induce a slow conformational change in TEAD4 that prevents its interaction with Yap1. To rule out the possibility that compound 2 induces slow aggregation of TEAD4, and not the proposed slow conformational change, GST-TEAD4 was incubated with DMSO compound 2 for 24 h at 4° C., followed by injection into an SEC column (FIG. 3H). […] A slight increase in dimer formation for the TEAD4 sample incubated with compound 2 occurred compared to the sample incubated with DMSO. […] Furthermore, it is highly unlikely that Cys-367 oxidation was responsible for the lack of 100% inhibition at longer times since it has been shown that covalent bond formation is rapid and complete within less than an hour.

TEAD4.Yap1 interaction [1] = molecular target: T1, TEAD4.Yap1 interaction (Homo sapiens, UniProt Q15561); assay: Fluorescence polarization, GST-TEAD4 with FAM-Yap60-99 peptide; design: TEAD4 (217-434), TEAD4 (217-434) Cys367Ser mutant and Yap1 (Full-length) were expressed as GST-fusion proteins; made in house; host or cells: E. coli BL-21 (DE3), pGEX-6P-1; details: 0.5, 6, 24, 48 h incubation at 4° C., 0.1-100 μM
T1 sequence (Q15561 217-434): as above

TEAD4 Cys367Ser mutant = molecular target: T2, TEAD4 Cys367Ser mutant (Homo sapiens, UniProt Q15561, C367S); assay: Whole protein ESI mass spectrometry, adduct formation with mutant; details: 10 μM mutant, 200 μM compound, 24 h at 4° C.
T2 construct: TEAD4 (217-434) Cys367Ser mutant and Yap1 (Full-length) were expressed as GST-fusion proteins; made in house; host or cells: E. coli BL-21 (DE3), pGEX-6P-1
T2 sequence (Q15561 217-434 C367S): as the sequence (Q15561 217-434) above, with C151S counted along it
Experimental: as §1
FIG. 4A illustrates analysis by ESI mass spectrometry after 10 μM TEAD4 Cys367Ser mutant was incubated with 200 μM compound for 24 h at 4° C. FIG. 4B illustrates measurement of fluorescence polarization due to binding when increasing concentration of TEAD4 Cys367Ser mutant was mixed with 16 nM FAM-Yap60-99 peptide (mean±s.d.; n=3). FIG. 4C illustrates measurement of fluorescence polarization due to binding when TEAD4 Cys367Ser mutant was incubated with increasing concentration of compounds for 24 h at 4° C. followed by addition of FAM-Yap60-99 (mean±s.d.; n=3).

TEAD4.Yap1 interaction [2] = molecular target: T1, TEAD4.Yap1 interaction; assay: Fluorescence polarization, GST-TEAD4 with FAM-Yap60-99 peptide; design: TEAD4 (217-434), TEAD4 (217-434) Cys367Ser mutant and Yap1 (Full-length) were expressed as GST-fusion proteins; made in house; host or cells: E. coli BL-21 (DE3), pGEX-6P-1; details: for inhibition / maximum inhibition of TEAD4.Yap1 interaction: 24 h incubation at 4° C.; for t1/2^∞ (half-life of inactivation): corresponding to kinact
Experimental: GST-TEAD4, GST-TEAD4 Cys367Ser mutant or HIS-TEAD2 interaction with Yap1 was investigated using a fluorescently-labeled peptide (FAM-Yap60-99), consisting of FAM-labeled TEAD-binding peptide fragment of Yap1 (FAM-[…] TVPMCLRKLPASFCKPP), which has a disulfide bridge (American Peptide, Sunnyvale, Calif.). Addition of FAM-Yap60-99 to the TEAD was followed by measurement of changes in polarization. 40 μL of 125 nM GST-TEAD4 WT or GST-TEAD4 Cys367Ser in assay buffer (PBS with 0.01% v/v Triton-X100) or 40 μL of 64 nM HIS-TEAD2 was added to a 384-well black polystyrene plate (Cat. No. 262260; Nunc, Roskilde, Denmark) and incubated with 5 μL of […] serially diluted compounds in assay buffer supplemented with 20% v/v DMSO for 24 h at 4° C. Finally, 5 μL of 160 nM FAM-Yap60-99 peptide was added, the plate centrifuged, and the polarization was measured on an Envision Multilabel Plate Reader (PerkinElmer, Waltham, Mass.) using a filter set with excitation and emission wavelengths of 485 and 535 nm, respectively. Percent inhibition was calculated as relative to a minimum inhibition control, which is without compound, and a maximum inhibition control, which is without a TEAD.
For the determination of the inhibition efficiency kinact/K1, the protein compound incubation time was varied between […], prior to the addition of the FAM-Yap60-99 peptide and fluorescence polarization measurements. The progressive decrease in TEAD activities were plotted against time for all 10 concentrations ([…]) of the compounds and the observed rate of inhibition (kobs) was calculated by fitting a simple exponential function.
The observed rate of inhibition was then plotted against the concentration of the compound and a […] function kobs=kinact[Inhibitor]/K1+[Inhibitor] was fitted to determine the kinact and K1 values.

With `O=C(CCl)c1ncccc1Nc1cccc(C(F)(F)F)c1` [Compound 5, 2-chloro-1-(3-((3-(trifluoromethyl)phenyl)amino)pyridin-2-yl)ethanone] as the molecule, how does the “covalent adduct formation with TEAD4” value (TEAD4) read?
The value was “formed more than one covalent complex”.

And the kinact (TEAD4.Yap1 interaction [1]; read-out: rate of inactivation kinact (converted))?
Its kinact is 1.36e-05 s⁻¹.

What about the “adduct formation with TEAD4 Cys367Ser mutant” value (TEAD4 Cys367Ser mutant) of the same molecule?
The value was “formed an adduct”.

What about the “inhibition / maximum inhibition of TEAD4.Yap1 interaction” value (TEAD4.Yap1 interaction [2]) of the same molecule?
Its value is 81%.

What about the “t1/2^∞ (half-life of inactivation)” value (TEAD4.Yap1 interaction [2]) of the same molecule?
The value was 14.3 h.

What does the source list for `O=C(CCl)c1ccccc1Nc1cccc(C(F)(F)F)c1` [Compound 2, 2-chloro-1-(2-((3-(trifluoromethyl)phenyl)amino)phenyl)ethanone]?
covalent adduct formation with TEAD4 (TEAD4): a peak at 26229 was observed, corresponding to the TEAD4.compound 2 adduct; adduct formation with TEAD4 (TEAD4; after 30 min incubation): ~100%; kinact (TEAD4.Yap1 interaction [1]; read-out: maximum rate of inactivation (kinact) (converted)): 1.06e-05 s⁻¹; adduct formation with TEAD4 Cys367Ser mutant (TEAD4 Cys367Ser mutant): failed to form an adduct; reversibility of inhibition after dialysis (TEAD4.Yap1 interaction [2]; 50 μM, 24 h at 4° C., then dialyzed against buffer 24 h at 4° C.): irreversible inhibitor; inhibition / maximum inhibition of TEAD4.Yap1 interaction (TEAD4.Yap1 interaction [2]): 53%; maximum inhibition of TEAD4 (TEAD4.Yap1 interaction [2]; 48 h incubation at 4° C.): 80%; t1/2^∞ (half-life of inactivation) (TEAD4.Yap1 interaction [2]): 18.2 h
